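In this assay, cells in 96-well plates receive the compound at five concentrations for 48 hours. Endpoints are linearly interpolated between the surrounding concentrations. TGI: concentration producing complete growth inhibition.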
Experiments:
Assay in all cases: growth of human tumour cells (NCI), 48 h
SNB-75 CNS = tested on: SNB-75 CNS
IGROV1 ovarian = tested on: IGROV1 ovarian
EKVX NSCLC = tested on: EKVX NSCLC
TK-10 renal = tested on: TK-10 renal
SF-268 CNS = tested on: SF-268 CNS
SF-295 CNS = tested on: SF-295 CNS
HOP-62 NSCLC = tested on: HOP-62 NSCLC
RPMI-8226 leukemia = tested on: RPMI-8226 leukemia
T-47D breast = tested on: T-47D breast
ACHN renal = tested on: ACHN renal
NCI-H522 lung = tested on: NCI-H522 lung
SK-MEL-28 melanoma = tested on: SK-MEL-28 melanoma
HCT-15 colon = tested on: HCT-15 colon
OVCAR-5 ovarian = tested on: OVCAR-5 ovarian
RXF 393 renal = tested on: RXF 393 renal
SK-MEL-2 melanoma = tested on: SK-MEL-2 melanoma

Row | SMILES | TGI (SNB-75 CNS) | TGI (IGROV1 ovarian) | TGI (EKVX NSCLC) | TGI (TK-10 renal) | TGI (SF-268 CNS) | TGI (SF-295 CNS) | TGI (HOP-62 NSCLC) | TGI (RPMI-8226 leukemia) | TGI (T-47D breast) | TGI (ACHN renal) | TGI (NCI-H522 lung) | TGI (SK-MEL-28 melanoma) | TGI (HCT-15 colon) | TGI (OVCAR-5 ovarian) | TGI (RXF 393 renal) | TGI (SK-MEL-2 melanoma)
1 | Cc1nn(C(=O)Cc2ccccc2)c2c1C(c1ccccc1)SC(N)=N2 (stereo not given) | > 100 µM | > 100 µM | > 100 µM | > 100 µM | > 100 µM | > 100 µM | > 100 µM | > 100 µM | > 100 µM | > 100 µM | > 100 µM | > 100 µM | > 100 µM | – | – | –
2 | Cc1ccc2nc(-c3ccccc3)cc(=O)n2c1 | > 100 µM | > 100 µM | > 100 µM | > 100 µM | > 100 µM | > 100 µM | > 100 µM | > 100 µM | > 100 µM | > 100 µM | > 100 µM | > 100 µM | > 100 µM | > 100 µM | > 100 µM | –
3 | COC(=O)[C@]1(C)CCC[C@@]2(C)C1CC[C@@]13C=C(C(C)C)[C@@H](CC1=O)CC23 (stereo not given in full) | > 100 µM | > 100 µM | 71.6 µM | > 100 µM | > 100 µM | 68.3 µM | 83.9 µM | 40.1 µM | > 100 µM | 45.1 µM | 38.5 µM | > 100 µM | 45.4 µM | – | 41.2 µM | –
4 | CCOC(=O)C(=[N+]=[N-])C(=O)CN1C(=O)c2ccccc2C1=O | > 100 µM | > 100 µM | > 100 µM | > 100 µM | > 100 µM | > 100 µM | > 100 µM | – | > 100 µM | > 100 µM | > 100 µM | > 100 µM | > 100 µM | > 100 µM | > 100 µM | > 100 µM
5 | Cc1ccc(-[n+]2cc([O-])on2)cc1 | – | > 100 µM | > 100 µM | > 100 µM | > 100 µM | > 100 µM | > 100 µM | > 100 µM | > 100 µM | > 100 µM | > 100 µM | > 100 µM | > 100 µM | > 100 µM | > 100 µM | > 100 µM
6 | N#C/C(N)=C(\C#N)NC=NCCO | > 100 µM | > 100 µM | > 100 µM | > 100 µM | > 100 µM | > 100 µM | > 100 µM | > 100 µM | > 100 µM | > 100 µM | > 100 µM | > 100 µM | > 100 µM | > 100 µM | – | > 100 µM
7 | Nc1ncc2c(n1)-c1ccccc1OC2N1CCCCC1 (stereo not given) | > 100 µM | > 100 µM | > 100 µM | > 100 µM | > 100 µM | > 100 µM | – | > 100 µM | > 100 µM | > 100 µM | > 100 µM | – | > 100 µM | > 100 µM | > 100 µM | > 100 µM
8 | CC(C)=C[C@H]1C[C@H](C)[C@H]2CC[C@H](C)c3c2c1c(C)c1ncoc31 | 36.2 µM | 27 µM | 30 µM | 31.7 µM | 46 µM | 31.2 µM | – | 36.9 µM | 37.9 µM | 32.7 µM | 31.5 µM | 37 µM | 34.8 µM | 29.9 µM | 25.7 µM | 31.1 µM
9 | COC(=O)CC(C)(NS(=O)c1ccc(C)cc1)c1ccccc1 (stereo not given) | – | > 100 µM | > 100 µM | > 100 µM | > 100 µM | > 100 µM | > 100 µM | > 100 µM | > 100 µM | > 100 µM | > 100 µM | > 100 µM | > 100 µM | > 100 µM | > 100 µM | > 100 µM
10 | CCOC(=O)c1ccc(-c2cc(C)no2)[nH]1 | > 100 µM | > 100 µM | > 100 µM | > 100 µM | > 100 µM | > 100 µM | – | > 100 µM | > 100 µM | > 100 µM | > 100 µM | > 100 µM | > 100 µM | > 100 µM | > 100 µM | > 100 µM
11 | COc1cc2c(/C=C3/C(=O)Nc4cccc(Cl)c43)c(Cl)[nH]c2cc1C | 4.03 µM | 11.8 µM | – | 3.58 µM | 19.8 µM | 4.21 µM | 10.2 µM | 4.69 µM | 5.48 µM | 12.2 µM | 6.74 µM | 4.27 µM | 4.29 µM | 14.8 µM | 7.41 µM | 12.3 µM
12 | CCN(CC)CCCNC(=O)c1cc(-c2nccn2C)nc2ccccc12 | > 100 µM | > 100 µM | > 100 µM | > 100 µM | > 100 µM | – | > 100 µM | > 100 µM | > 100 µM | > 100 µM | > 100 µM | – | > 100 µM | > 100 µM | > 100 µM | > 100 µM

Reference: PubChem BioAssay (NCI)
